# Laboratory results taken from article PMC10337138 (Acta Neuropathologica Communications, 2023).
# Key:
# Conditions in all cases: 1 mM ATP; inhibitor
# [1] = molecular target: PKN1 (Homo sapiens, UniProt Q16512)
# Procedure: (§1) Kinase selectivity panel Kinome profiling was conducted by AssayQuant Technologies (Marlboro, MA) using Sox chromophore technology and Sox-based peptide substrates developed for human kinases in a 384-well format. Compounds were tested at 1 µM in the presence of 1 mM ATP.
# [2] = molecular target: PRKG2 (Homo sapiens, UniProt Q13237)
# Procedure: as §1
# [3] = molecular target: STK26/MST4 (Homo sapiens, UniProt Q9P289)
# Chain of STK26/MST4 (Q9P289 whole entry): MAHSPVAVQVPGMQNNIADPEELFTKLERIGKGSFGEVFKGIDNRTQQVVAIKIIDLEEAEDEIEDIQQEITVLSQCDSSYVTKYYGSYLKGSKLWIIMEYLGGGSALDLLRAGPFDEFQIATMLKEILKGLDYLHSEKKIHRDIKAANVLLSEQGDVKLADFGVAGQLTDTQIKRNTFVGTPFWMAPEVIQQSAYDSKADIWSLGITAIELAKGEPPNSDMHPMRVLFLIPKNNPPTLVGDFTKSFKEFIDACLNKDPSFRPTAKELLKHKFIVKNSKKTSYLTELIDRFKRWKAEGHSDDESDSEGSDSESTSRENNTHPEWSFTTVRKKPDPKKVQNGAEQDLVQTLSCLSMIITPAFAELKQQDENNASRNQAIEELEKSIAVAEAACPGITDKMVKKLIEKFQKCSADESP
# Procedure: as §1
# [4] = molecular target: MAP3K9 (Homo sapiens, UniProt P80192)
# Procedure: as §1
# [5] = molecular target: PASK (Homo sapiens, UniProt Q96RG2)
# Procedure: as §1
# [6] = molecular target: T1, ICK (Homo sapiens, UniProt Q9UPZ9)
# T1 construct: gene CILK1
# T1 sequence (Q9UPZ9 whole entry): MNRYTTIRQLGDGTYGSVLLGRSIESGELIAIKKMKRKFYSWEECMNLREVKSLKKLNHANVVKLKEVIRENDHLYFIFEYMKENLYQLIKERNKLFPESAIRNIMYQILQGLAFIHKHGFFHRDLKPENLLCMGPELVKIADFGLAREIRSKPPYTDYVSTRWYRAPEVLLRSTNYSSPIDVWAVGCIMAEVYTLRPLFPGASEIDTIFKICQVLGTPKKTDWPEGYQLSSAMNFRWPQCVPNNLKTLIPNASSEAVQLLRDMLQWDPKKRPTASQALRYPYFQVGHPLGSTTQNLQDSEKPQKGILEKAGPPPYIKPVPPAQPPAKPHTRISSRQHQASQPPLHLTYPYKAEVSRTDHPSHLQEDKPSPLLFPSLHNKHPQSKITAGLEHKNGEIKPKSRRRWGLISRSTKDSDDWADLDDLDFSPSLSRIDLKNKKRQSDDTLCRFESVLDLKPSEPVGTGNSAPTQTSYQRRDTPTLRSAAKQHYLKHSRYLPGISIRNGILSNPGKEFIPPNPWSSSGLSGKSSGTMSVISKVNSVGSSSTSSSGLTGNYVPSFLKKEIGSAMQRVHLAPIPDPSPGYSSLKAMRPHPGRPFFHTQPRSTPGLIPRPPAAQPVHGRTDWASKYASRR
# Procedure: as §1
# [7] = molecular target: AURKA/AURA (Homo sapiens, UniProt O14965)
# Procedure: as §1
# [8] = molecular target: CDK6/D1 (Homo sapiens, UniProt Q00534)
# Procedure: as §1
# [9] = molecular target: KIT (Homo sapiens, UniProt P10721)
# Procedure: as §1
# [10] = molecular target: T2, FYNA (Homo sapiens, UniProt P06241)
# T2 construct: gene FYN
# Procedure: as §1
# [11] = molecular target: EEF2K (Homo sapiens, UniProt O00418)
# Procedure: as §1
# [12] = molecular target: T3, NDR1 (Homo sapiens, UniProt Q15208)
# T3 construct: gene STK38
# T3 sequence (Q15208 whole entry): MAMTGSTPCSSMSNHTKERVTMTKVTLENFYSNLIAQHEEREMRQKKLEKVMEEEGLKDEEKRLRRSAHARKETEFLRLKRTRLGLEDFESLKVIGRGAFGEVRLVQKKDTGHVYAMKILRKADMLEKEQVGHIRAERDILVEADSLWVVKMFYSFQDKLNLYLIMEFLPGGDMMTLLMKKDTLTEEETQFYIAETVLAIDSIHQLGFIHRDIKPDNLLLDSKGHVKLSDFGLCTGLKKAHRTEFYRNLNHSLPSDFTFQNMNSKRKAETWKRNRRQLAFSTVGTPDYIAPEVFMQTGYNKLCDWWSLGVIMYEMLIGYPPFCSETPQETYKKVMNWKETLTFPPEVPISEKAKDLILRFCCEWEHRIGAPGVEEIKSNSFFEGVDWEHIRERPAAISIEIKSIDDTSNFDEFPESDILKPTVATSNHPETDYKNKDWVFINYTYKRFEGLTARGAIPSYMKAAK
# Procedure: as §1
# [13] = molecular target: T4, LYNB (Homo sapiens, UniProt P07948)
# T4 construct: gene LYN
# T4 sequence (P07948 whole entry): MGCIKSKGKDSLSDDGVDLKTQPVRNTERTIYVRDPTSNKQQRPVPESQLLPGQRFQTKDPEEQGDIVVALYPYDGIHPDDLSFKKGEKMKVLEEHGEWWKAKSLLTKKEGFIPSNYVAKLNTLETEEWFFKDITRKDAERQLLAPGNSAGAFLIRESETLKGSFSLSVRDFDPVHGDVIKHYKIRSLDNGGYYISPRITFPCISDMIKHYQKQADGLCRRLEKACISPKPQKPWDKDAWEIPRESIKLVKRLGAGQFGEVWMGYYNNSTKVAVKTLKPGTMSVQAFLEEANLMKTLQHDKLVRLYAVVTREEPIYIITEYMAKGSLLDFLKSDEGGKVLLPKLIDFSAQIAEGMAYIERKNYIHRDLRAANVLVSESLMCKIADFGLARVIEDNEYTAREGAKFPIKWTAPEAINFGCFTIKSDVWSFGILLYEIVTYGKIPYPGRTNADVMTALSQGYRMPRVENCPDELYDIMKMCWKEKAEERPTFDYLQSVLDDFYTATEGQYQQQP
# Procedure: as §1
# [14] = molecular target: TAOK2 (Homo sapiens, UniProt Q9UL54)
# Procedure: as §1
# [15] = molecular target: AURKC/AURC (Homo sapiens, UniProt Q9UQB9)
# Procedure: as §1
# [16] = molecular target: NLK (Homo sapiens, UniProt Q9UBE8)
# Procedure: as §1
# [17] = molecular target: RPS6KA4/MSK2 (Homo sapiens, UniProt O75676)
# Procedure: as §1
# [18] = molecular target: DAPK1 (Homo sapiens, UniProt P53355)
# Chain of DAPK1 (P53355 whole entry): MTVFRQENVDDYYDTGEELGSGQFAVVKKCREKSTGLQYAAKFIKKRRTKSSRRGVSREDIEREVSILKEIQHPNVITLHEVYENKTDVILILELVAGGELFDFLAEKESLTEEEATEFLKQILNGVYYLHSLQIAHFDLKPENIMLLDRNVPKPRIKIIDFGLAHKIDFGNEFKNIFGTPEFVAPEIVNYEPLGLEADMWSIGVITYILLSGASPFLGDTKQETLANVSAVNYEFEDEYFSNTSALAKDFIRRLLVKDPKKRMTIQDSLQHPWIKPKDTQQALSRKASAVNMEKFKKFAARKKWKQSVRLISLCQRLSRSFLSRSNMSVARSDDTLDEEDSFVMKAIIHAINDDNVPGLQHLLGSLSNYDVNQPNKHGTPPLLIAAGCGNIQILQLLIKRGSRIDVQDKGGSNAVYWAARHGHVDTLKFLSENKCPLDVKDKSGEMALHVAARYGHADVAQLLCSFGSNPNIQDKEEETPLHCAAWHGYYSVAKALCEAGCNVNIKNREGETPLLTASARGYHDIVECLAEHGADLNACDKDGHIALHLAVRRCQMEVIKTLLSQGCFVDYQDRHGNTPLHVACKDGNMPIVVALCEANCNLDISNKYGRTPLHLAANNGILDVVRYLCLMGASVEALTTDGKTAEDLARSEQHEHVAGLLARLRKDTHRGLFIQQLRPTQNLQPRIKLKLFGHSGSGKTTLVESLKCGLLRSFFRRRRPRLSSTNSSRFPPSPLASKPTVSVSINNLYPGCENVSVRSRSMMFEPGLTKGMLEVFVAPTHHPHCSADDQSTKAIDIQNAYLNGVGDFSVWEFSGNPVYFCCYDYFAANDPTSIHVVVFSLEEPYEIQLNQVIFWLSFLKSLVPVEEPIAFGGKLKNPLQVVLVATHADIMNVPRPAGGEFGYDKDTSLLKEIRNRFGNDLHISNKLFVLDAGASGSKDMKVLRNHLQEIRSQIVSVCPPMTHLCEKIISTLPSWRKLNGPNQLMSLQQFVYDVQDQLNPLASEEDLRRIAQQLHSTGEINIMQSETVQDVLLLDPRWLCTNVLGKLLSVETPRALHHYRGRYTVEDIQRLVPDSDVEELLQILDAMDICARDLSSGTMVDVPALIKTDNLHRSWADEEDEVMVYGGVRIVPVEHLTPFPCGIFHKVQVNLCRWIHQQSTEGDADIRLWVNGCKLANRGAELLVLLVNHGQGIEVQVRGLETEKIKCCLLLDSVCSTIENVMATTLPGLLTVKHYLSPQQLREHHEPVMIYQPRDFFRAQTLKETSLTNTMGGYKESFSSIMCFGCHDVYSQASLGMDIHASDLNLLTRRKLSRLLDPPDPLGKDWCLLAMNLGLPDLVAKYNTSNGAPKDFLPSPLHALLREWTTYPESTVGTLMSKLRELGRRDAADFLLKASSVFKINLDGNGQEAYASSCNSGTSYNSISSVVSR
# Procedure: as §1
# [19] = molecular target: IGF1R (Homo sapiens, UniProt P08069)
# Procedure: as §1
# [20] = molecular target: PAK4 (Homo sapiens, UniProt O96013)
# Procedure: as §1
# [21] = molecular target: DYRK2 (Homo sapiens, UniProt Q92630)
# Chain of DYRK2 (Q92630 whole entry): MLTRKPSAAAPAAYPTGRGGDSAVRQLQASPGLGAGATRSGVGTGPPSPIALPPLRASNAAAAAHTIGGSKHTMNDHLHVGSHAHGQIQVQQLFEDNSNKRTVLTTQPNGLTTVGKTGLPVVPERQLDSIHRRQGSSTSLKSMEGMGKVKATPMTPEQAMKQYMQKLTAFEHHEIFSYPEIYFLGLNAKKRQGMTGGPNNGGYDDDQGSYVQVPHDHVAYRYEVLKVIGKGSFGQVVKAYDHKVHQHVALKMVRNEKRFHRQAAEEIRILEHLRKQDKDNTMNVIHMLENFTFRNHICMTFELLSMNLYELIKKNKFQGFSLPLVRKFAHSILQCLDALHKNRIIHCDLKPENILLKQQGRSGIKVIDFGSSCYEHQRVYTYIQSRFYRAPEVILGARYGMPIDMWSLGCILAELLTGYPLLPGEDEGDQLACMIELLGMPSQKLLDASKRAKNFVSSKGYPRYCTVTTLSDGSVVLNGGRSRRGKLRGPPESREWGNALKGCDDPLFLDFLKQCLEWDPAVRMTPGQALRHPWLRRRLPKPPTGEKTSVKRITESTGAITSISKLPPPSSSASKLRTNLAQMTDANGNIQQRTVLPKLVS
# Procedure: as §1
# [22] = molecular target: IRAK1 (Homo sapiens, UniProt P51617)
# Procedure: as §1
# [23] = molecular target: MAP2K2/MEK2 (Homo sapiens, UniProt P36507)
# Procedure: as §1
# [24] = molecular target: PRKAA1/AMPK111 (Homo sapiens, UniProt Q13131)
# Procedure: as §1
# [25] = molecular target: ULK2 (Homo sapiens, UniProt Q8IYT8)
# Procedure: as §1
# [26] = molecular target: TEK/TIE2 (Homo sapiens, UniProt Q02763)
# Procedure: as §1
# [27] = molecular target: MAP3K11 (Homo sapiens, UniProt Q16584)
# Procedure: as §1
# [28] = molecular target: HIPK1 (Homo sapiens, UniProt Q86Z02)
# Procedure: as §1
# [29] = molecular target: MAP3K13 (Homo sapiens, UniProt O43283)
# Procedure: as §1
# [30] = molecular target: FGFR2 (Homo sapiens, UniProt P21802)
# Chain of FGFR2 (P21802 whole entry): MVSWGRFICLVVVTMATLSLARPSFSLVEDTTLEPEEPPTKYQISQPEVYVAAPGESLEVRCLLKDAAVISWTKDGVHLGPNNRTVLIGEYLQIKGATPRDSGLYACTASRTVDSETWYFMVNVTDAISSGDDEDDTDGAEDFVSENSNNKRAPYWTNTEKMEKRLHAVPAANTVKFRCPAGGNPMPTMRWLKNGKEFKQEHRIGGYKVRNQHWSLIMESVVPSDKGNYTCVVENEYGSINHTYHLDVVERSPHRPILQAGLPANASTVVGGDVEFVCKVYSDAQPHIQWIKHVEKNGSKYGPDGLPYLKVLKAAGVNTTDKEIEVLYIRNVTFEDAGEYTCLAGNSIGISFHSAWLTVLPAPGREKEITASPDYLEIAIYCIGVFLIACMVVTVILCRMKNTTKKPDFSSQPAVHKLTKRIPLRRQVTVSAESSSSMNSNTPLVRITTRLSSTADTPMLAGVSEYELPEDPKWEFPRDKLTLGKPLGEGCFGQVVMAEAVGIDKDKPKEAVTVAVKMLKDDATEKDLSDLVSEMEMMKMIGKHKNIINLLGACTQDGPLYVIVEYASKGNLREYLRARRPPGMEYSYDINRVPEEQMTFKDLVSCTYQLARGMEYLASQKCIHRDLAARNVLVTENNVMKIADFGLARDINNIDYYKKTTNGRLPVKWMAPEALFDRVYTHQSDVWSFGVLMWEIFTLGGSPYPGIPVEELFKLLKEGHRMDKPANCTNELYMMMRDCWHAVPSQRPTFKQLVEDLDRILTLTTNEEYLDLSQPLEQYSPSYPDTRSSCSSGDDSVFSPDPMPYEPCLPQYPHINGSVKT
# Procedure: as §1
# [31] = molecular target: DCLK2/DCAML2 (Homo sapiens, UniProt Q8N568)
# Procedure: as §1
# [32] = molecular target: CDC42BPB/MRCKB (Homo sapiens, UniProt Q9Y5S2)
# Procedure: as §1
# [33] = molecular target: T5, NDR2 (Homo sapiens, UniProt Q9Y2H1)
# T5 construct: gene STK38L
# Procedure: as §1
# [34] = molecular target: MARK3 (Homo sapiens, UniProt P27448)
# Procedure: as §1
# [35] = molecular target: PHKG1 (Homo sapiens, UniProt Q16816)
# Procedure: as §1
# [36] = molecular target: HCK (Homo sapiens, UniProt P08631)
# Procedure: as §1
# [37] = molecular target: MAPK8/JNK1 (Homo sapiens, UniProt P45983)
# Procedure: as §1
# [38] = molecular target: MAP4K4/HGK (Homo sapiens, UniProt O95819)
# Procedure: as §1
smiles,measurement,setting,value
C=CC(=O)N1CCC[C@@H](n2nc(-c3ccc(Oc4ccccc4)cc3)c3c(N)ncnc32)C1 [Ibrutinib],"1 µM GBD00276 (ibrutinib), % inhibition",[1],-1.102%
same,"1 µM GBD00276 (ibrutinib), % inhibition",[2],26.79%
same,"1 µM GBD00276 (ibrutinib), % inhibition",[3],-9.161%
same,"1 µM GBD00276 (ibrutinib), % inhibition",[4],-1.576%
same,"1 µM GBD00276 (ibrutinib), % inhibition",[5],16.95%
same,"1 µM GBD00276 (ibrutinib), % inhibition",[6],-2.761%
same,"1 µM GBD00276 (ibrutinib), % inhibition",[7],11.52%
same,"1 µM GBD00276 (ibrutinib), % inhibition",[8],3.427%
same,"1 µM GBD00276 (ibrutinib), % inhibition",[9],2.778%
same,"1 µM GBD00276 (ibrutinib), % inhibition",[10],15.99%
same,"1 µM GBD00276 (ibrutinib), % inhibition",[11],6.273%
same,"1 µM GBD00276 (ibrutinib), % inhibition",[12],6.051%
same,"1 µM GBD00276 (ibrutinib), % inhibition",[13],40.58%
same,"1 µM GBD00276 (ibrutinib), % inhibition",[14],11.03%
same,"1 µM GBD00276 (ibrutinib), % inhibition",[15],2.291%
same,"1 µM GBD00276 (ibrutinib), % inhibition",[16],-34.47%
same,"1 µM GBD00276 (ibrutinib), % inhibition",[17],6.848%
same,"1 µM GBD00276 (ibrutinib), % inhibition",[18],0.3006%
same,"1 µM GBD00276 (ibrutinib), % inhibition",[19],1.391%
same,"1 µM GBD00276 (ibrutinib), % inhibition",[20],3.525%
same,"1 µM GBD00276 (ibrutinib), % inhibition",[21],14.5%
same,"1 µM GBD00276 (ibrutinib), % inhibition",[22],5.215%
same,"1 µM GBD00276 (ibrutinib), % inhibition",[23],-23.38%
same,"1 µM GBD00276 (ibrutinib), % inhibition",[24],6.623%
same,"1 µM GBD00276 (ibrutinib), % inhibition",[25],-2.604%
same,"1 µM GBD00276 (ibrutinib), % inhibition",[26],2.512%
same,"1 µM GBD00276 (ibrutinib), % inhibition",[27],-6.395%
same,"1 µM GBD00276 (ibrutinib), % inhibition",[28],7.799%
same,"1 µM GBD00276 (ibrutinib), % inhibition",[29],-13.52%
same,"1 µM GBD00276 (ibrutinib), % inhibition",[30],32.69%
same,"1 µM GBD00276 (ibrutinib), % inhibition",[31],-15.45%
same,"1 µM GBD00276 (ibrutinib), % inhibition",[32],-15.12%
same,"1 µM GBD00276 (ibrutinib), % inhibition",[33],11.14%
same,"1 µM GBD00276 (ibrutinib), % inhibition",[34],4.514%
same,"1 µM GBD00276 (ibrutinib), % inhibition",[35],0.1781%
same,"1 µM GBD00276 (ibrutinib), % inhibition",[36],42.82%
same,"1 µM GBD00276 (ibrutinib), % inhibition",[37],10.25%
same,"1 µM GBD00276 (ibrutinib), % inhibition",[38],-8.478%
